Values quoted from earlier work, collected in paper PMC9683570.
Counter-ions that a name gives are not always drawn. Like-named read-outs stand apart in the source and are kept apart here. Blank lines part the entries; values can stand above or below the compound they belong to.

Legend:
hCaV1.2, β2, α2δ = settings: ambient, 1.8 Ca2+
hCav1.2 = test system: hCav1.2; design: method as in PMID 23651875; settings: RT
L-type Ca2+ current [1] = test system: L-type Ca2+ current; design: method as in PMID 19367686; settings: 20–25 °C, 10 Ca2+
[2] = test system: hCaV1.2α, β2, α2δ1 subunits; design: method as in PMID 30151907; settings: IonWorks Barracuda, ambient temperature, […] Ca2+, current at 0 mV step, 10 s interval, rundown adjusted; read-out: IC50 (Li et al. 2018)
[3] = test system: CaVAb (voltage-dependent Ca2+-selective channel); settings: 13 Ba2+
[4] = design: method as in DrugBank; settings: predicted, based on ChemAxon; ref DrugBank
CaV1.2, α2δ, β2a [5] = settings: ~25 °C
L-type Ca2+ current [6] = settings: RT (22–25 °C), 2 Ca2+
[7] = test system: CaV1.2, α2δ, β2a along with Kir2.3; settings: 30 Ba2+
CaV1.2, α2δ, β2a [8] = settings: 22–25 °C, 20 Ba2+
CaV1.2, α2δ, β1b = settings: read-out: IC50 (± SE); RT, 10 Ba2+
NaV1.5 channels = settings: similar concentrations as tested on CaV1.2
L-type Ca2+ channels = test system: L-type Ca2+ channels; design: method as in PMID 17909749; settings: from 22°C to 37°C
Ca2+ current (L-type) = settings: peak current inhibited less potently than late current at end of step depolarization

Structure (SMILES): COc1ccc(CCN(C)CCCC(C#N)(c2ccc(OC)c(OC)c2)C(C)C)cc1OC (racemic) [Verapamil, (±)-verapamil hydrochloride]
nH (± SE) (hCaV1.2, β2, α2δ): […] | pIC50 (hCav1.2): […] | IC50 (hCav1.2; converted from pIC50): […] | IC50 (L-type Ca2+ current [1]): 0.79 µM | IC50 [2]: […] | IC50 ([3]; 20 pulses at 1 Hz, read-out: IC50 (± SE)): […]

Log P [4]: 5.49
Structure (SMILES): CC(C)COCC(CN(Cc1ccccc1)c1ccccc1)N1CCCC1 (stereo not drawn) [Bepridil]
IC50 [2]: 638 µM

Log P [4]: 4.54
Structure (SMILES): CN(C)CCCN1c2ccccc2Sc2ccc(Cl)cc21 [Chlorpromazine]
IC50 [2]: 6.35 µM

Structure (SMILES): COc1ccc([C@@H]2Sc3ccccc3N(CCN(C)C)C(=O)[C@@H]2OC(C)=O)cc1 [Diltiazem, diltiazem hydrochloride]
IC50 (hCaV1.2, β2, α2δ): 0.76 ± 0.08 µM | nH (± SE) (hCaV1.2, β2, α2δ): 1.14 ± 0.15 | IC50 (CaV1.2, α2δ, β2a [5]; 5 mM Ba2+, read-out: IC50 (± SE) (Ba2+) (converted)): 109 µM | IC50 (CaV1.2, α2δ, β2a [5]; 1.8 Ca2+, read-out: IC50 (± SE) (Ca2+)): 250 ± 16 µM | nH (L-type Ca2+ current [6]): 0.77 | IC50 (L-type Ca2+ current [6]; read-out: IC50 (± SE)): 0.63 ± 0.05 µM | IC50 ([7]; read-out: IC50 (automated), PatchXpress 7000A, 22–26 °C): 36 µM | IC50 ([7]; read-out: IC50 (manual), manual, 20–25 °C): 44 µM | IC50 (CaV1.2, α2δ, β2a [8]): 85 ± 9 µM | IC50 (L-type Ca2+ current [1]): 30 µM | IC50 [2]: 31.6 µM | IC50 ([3]; 20 ms single pulse from -120 mV, read-out: IC50, resting state block): 41 µM | IC50 ([3]; 20 pulses at 1 Hz from -120 mV, read-out: IC50, use-dependent block): 10.4 µM | IC50 (CaV1.2, α2δ, β1b): 65 ± 13 µM

Structure (SMILES): C=CCN1CC[C@]23c4c5ccc(O)c4O[C@H]2C(=O)CC[C@@]3(O)[C@H]1C5 [Naloxone, Naloxone hydrochloride]
nH on the peak and the late current (NaV1.5 channels): ≥ 0.8

Structure (SMILES): O=C1CC[C@@]2(O)[C@H]3Cc4ccc(O)c5c4[C@@]2(CCN3CC2CC2)[C@H]1O5 [Naltrexone, naltrexone hydrochloride]
nH on the peak and the late current (NaV1.5 channels): ≥ 0.8

Log P [4]: 2.35
Structure (SMILES): Cc1nccn1CC1CCc2c(c3ccccc3n2C)C1=O (stereo not drawn) [Ondansetron]
IC50 [2]: 9310 µM

Log P [4]: 6.48
Structure (SMILES): CC(C)(C)c1ccc(C(O)CCCN2CCC(C(O)(c3ccccc3)c3ccccc3)CC2)cc1 (stereo not drawn) [Terfenadine]

Structure (SMILES): Cc1c(-c2ccccc2)oc2c(C(=O)OCCN3CCCCC3)cccc2c1=O [flavoxate]
increase in block potency on raising the recording temperature (L-type Ca2+ channels): 2.2 X

Structure (SMILES): COC(=O)C1=C(C)NC(C)=C(C(=O)OC)C1c1ccccc1[N+](=O)[O-] [nifedipine]
increase in block potency on raising the recording temperature (L-type Ca2+ channels): 7 X

difference in the IC50s, peak vs late Ca2+ current (Ca2+ current (L-type)): 13.1 X
Structure (SMILES): COCCOC(=O)C1=C(C)NC(C)=C(C(=O)OC(C)C)C1c1cccc([N+](=O)[O-])c1 (stereo not drawn) [nimodipine]
